{"source": "patent US11207331B2", "about": "“Agents, compositions and methods for enhancing neurological function” (University of Southern California, priority 2007, dated 2021)", "data": [{"system": "hippocampal neural cells", "experiment": "3H-thymidine uptake in cultured hippocampal neural cells", "format": "cell-based, rat", "conditions": "24 hours, 37° C.", "description": "Biochemical analyses of 3H-thymidine uptake, as a measure of DNA synthesis, were used as the experimental vehicle to confirm the morphological observations described in examples 1 and 2. […] Thus, the range for the neurogenic effect of THP on neural cells is quite is sensitive and quite broad.\nFor these experiments, cultured hippocampal neural cells, derived from embryonic day 18 rat fetuses, were allowed to adhere to polylysine coated plastic cover-slips for 40 min in serum containing medium. Following adhesion, neurons were exposed to […] 3H-thymidine in the presence or absence of 100-500 nM THP and allowed to incubate at 37° C. for 24 hours in the absence or presence of the indicated steroids. Data are expressed as mean+SEM, *p<. 05,**p<0.01, ***p<0.001.\nThe time course of THP-induced 3H-thymidine incorporation in hippocampal neuronal cells is shown in FIG. 9 where cultured hippocampal nerve cells, derived from embryonic day 18 rat fetuses, were allowed to adhere to polylysine coated plastic cover-slips for 40 min in serum containing medium. Following adhesion, serum containing medium in the presence or absence of 10-250 nM THP plus […] 3H-thymidine and allowed to incubate at 37 for 1, 8 or 24 hours. Data are expressed as mean±SEM, *p<0.05,**p<0.01,***p<0.001.", "values": [{"molecule": "CC(=O)[C@H]1CC[C@H]2[C@@H]3CCC4=CC(=O)CC[C@]4(C)[C@H]3CC[C@]12C", "note": "[Progesterone]", "effect on 3H-thymidine incorporation (steroid specificity)": "modest increase"}, {"molecule": "5α,3α-pregnan-triol", "effect on 3H-thymidine incorporation (steroid specificity)": "significant decrease"}, {"molecule": "5α,3α-pregnan-diol", "effect on 3H-thymidine incorporation (steroid specificity)": "significant decrease"}, {"molecule": "5α, 3P-pregnen-3-one", "effect on 3H-thymidine incorporation (steroid specificity)": "no effect"}, {"molecule": "pregnenolone sulfate", "effect on 3H-thymidine incorporation (steroid specificity)": "significant decrease"}, {"molecule": "CC(=O)[C@H]1CC[C@H]2[C@@H]3CC[C@H]4C[C@@H](O)CC[C@]4(C)[C@H]3CC[C@]12C", "note": "[5cc, 3ss-THP]", "effect on 3H-thymidine incorporation (steroid specificity)": "no effect"}, {"molecule": "CC(=O)[C@H]1CC[C@H]2[C@@H]3CC[C@@H]4C[C@@H](O)CC[C@]4(C)[C@H]3CC[C@]12C", "note": "[5ss, 3ss-THP]", "effect on 3H-thymidine incorporation (steroid specificity)": "no effect"}]}]}
